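Five concentrations, 48 hours, 96-well plates. GI50 = concentration required for 50% inhibition of growth. TGI denotes the concentration required for complete inhibition of growth.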
Columns and labels:
Test in all cases: NCI tumour cell line growth inhibition, 48 h
[1] = test system: COLO 205 colon
[2] = test system: HCT-116 colon
[3] = test system: LOX IMVI melanoma
[4] = test system: M14 melanoma
[5] = test system: MOLT-4 leukemia
[6] = test system: NCI-H460 lung
[7] = test system: UACC-257 melanoma
[8] = test system: HOP-92 NSCLC
[9] = test system: BT-549 breast
[10] = test system: PC-3 prostate

`CS(=O)(=O)NNS(=O)(=O)c1cccc([N+](=O)[O-])c1` showed a TGI [1] of over 100 µM, a TGI [2] of over 100 µM and a TGI [3] of over 100 µM. The TGI [4] was over 100 µM, the TGI [5] was over 100 µM and the TGI [6] was over 100 µM. The TGI [7] was over 100 µM.

`COC(=O)C1=C2CCC(=O)[C@@]2(C)C(OC(C)=O)C=CC1` (stereo partly specified) showed a TGI [2] of 69.6 µM, a TGI [4] of over 100 µM and a TGI [5] of over 100 µM. The TGI [6] was over 100 µM and the TGI [7] was over 100 µM.

Compound `Cc1cc(NS(=O)(=O)c2ccc(N=Nc3cc(N=Nc4ccc(S(=O)(=O)Nc5cc(C)nc(C)n5)cc4)c4c(NC(=O)C(Cl)Cl)cccc4c3OC(=O)C(Cl)Cl)cc2)nc(C)n1` (tested in a mixture with another compound) has a TGI [1] of 74.9 µM, a TGI [2] of over 100 µM and a TGI [8] of 59.2 µM. For the same compound, the TGI [3] was 34.3 µM, the TGI [4] was 70.2 µM and the TGI [5] was over 100 µM. The TGI [6] was over 100 µM and the TGI [7] was 70.2 µM.

`Cc1nc(Cl)nc(Cl)c1C` showed a TGI [9] of over 100 µM, a TGI [3] of over 100 µM and a TGI [4] of over 100 µM. For the same compound, the TGI [5] was over 100 µM, the TGI [6] was over 100 µM and the TGI [10] was over 100 µM. It also gave a TGI [7] of over 100 µM.

Compound `CC1CC2(C)ON=C(c3ccccc3)N2c2ccccc2S1` (stereo unspecified) has a GI50 [9] of 24.8 µM, a TGI [9] of 67.4 µM and a GI50 [1] of 22.6 µM. For the same compound, the TGI [1] was 56.2 µM, the GI50 [2] was 21.4 µM and the TGI [2] was 49.6 µM. For the same compound, the GI50 [3] was 22 µM, the TGI [3] was 50.1 µM and the GI50 [4] was 31.7 µM. For the same compound, the TGI [4] was 83.2 µM, the GI50 [5] was 16 µM and the TGI [5] was 44.9 µM. It also gave a GI50 [6] of 41.3 µM and a GI50 [7] of 36.8 µM.

`COc1cc2nc3sc(C(=O)Nc4ccc(C(=O)OC(C)C)cc4)c(C(=O)Nc4ccc(Cl)cc4C)n3c(=O)c2cc1OC` gave a GI50 [9] of 1.67 µM, a TGI [9] of 20 µM and a GI50 [1] of 7.02 µM. For the same compound, the TGI [1] was 51.9 µM, the GI50 [2] was 11.3 µM and the TGI [2] was over 100 µM. The GI50 [8] was 10.7 µM, the TGI [8] was 30.6 µM and the GI50 [3] was 11.1 µM. It also gave a TGI [3] of 34.4 µM, a GI50 [5] of 2.87 µM and a TGI [5] of 18.9 µM. The GI50 [6] was 3.05 µM, the TGI [6] was over 100 µM and the GI50 [10] was 18.5 µM. For the same compound, the TGI [10] was over 100 µM, the GI50 [7] was 18.4 µM and the TGI [7] was 93.2 µM.

In the case of `C/C(=C\C(C)COCc1ccccc1)[C@H](COCc1ccccc1)OCc1ccccc1` (stereo partly specified), the TGI [1] is reported as over 100 µM, the TGI [2] is reported as over 100 µM and the TGI [8] is reported as over 100 µM. For the same compound, the TGI [3] was over 100 µM, the TGI [4] was over 100 µM and the TGI [5] was over 100 µM. For the same compound, the TGI [6] was over 100 µM.

For `COc1cc2c3c(n(CCCCOC(=O)C(F)(F)F)c(=O)c2cc1OC)-c1cc2c(cc1C3=O)OCO2`, the GI50 [9] was over 100 µM, the TGI [9] was over 100 µM and the GI50 [1] was over 100 µM. For the same compound, the TGI [1] was over 100 µM, the GI50 [8] was over 82.9 µM and the TGI [8] was over 100 µM. It also gave a GI50 [3] of over 100 µM, a TGI [3] of over 100 µM and a GI50 [5] of 10.1 µM. The TGI [5] was over 77.3 µM, the TGI [6] was over 100 µM and the GI50 [10] was over 100 µM. For the same compound, the TGI [10] was over 100 µM, the GI50 [7] was over 100 µM and the TGI [7] was over 100 µM.

With `COc1ccc2c(c1)c(-c1ccc(-c3cn(S(=O)(=O)c4ccccc4)c4ccc(OC)cc34)s1)cn2S(=O)(=O)c1ccccc1` the GI50 [1] was over 100 µM, the TGI [1] was over 100 µM and the GI50 [2] was over 100 µM. It also gave a TGI [2] of over 100 µM, a GI50 [8] of over 100 µM and a TGI [8] of over 100 µM. The GI50 [3] was over 100 µM, the TGI [3] was over 100 µM and the GI50 [4] was over 100 µM. The TGI [4] was over 100 µM, the GI50 [5] was over 100 µM and the TGI [5] was over 100 µM. It also gave a GI50 [6] of over 100 µM, a TGI [6] of over 100 µM and a GI50 [10] of over 100 µM. It also gave a TGI [10] of over 100 µM.

`Oc1ccc(-c2nnc3sc(-c4ccc(F)c(Oc5ccccc5)c4)nn23)cc1` gave a GI50 [1] of 96 µM, a TGI [1] of over 100 µM and a GI50 [2] of 23.5 µM. It also gave a TGI [2] of over 100 µM, a GI50 [8] of 26.1 µM and a TGI [8] of over 100 µM. The GI50 [3] was 36.7 µM, the TGI [3] was over 100 µM and the GI50 [4] was 43.6 µM. For the same compound, the TGI [4] was over 100 µM, the GI50 [5] was 22.2 µM and the TGI [5] was over 100 µM. For the same compound, the GI50 [6] was 38.5 µM, the TGI [6] was over 100 µM and the GI50 [10] was 36.8 µM. For the same compound, the TGI [10] was over 100 µM, the GI50 [7] was over 100 µM and the TGI [7] was over 100 µM.

`O=S(=O)(O)O.[NH-]C1CCCCC1[NH-].[Pt+2]` (stereo unspecified) gave a GI50 [1] of over 100 µM, a TGI [1] of over 100 µM and a GI50 [2] of 43.4 µM. For the same compound, the TGI [2] was over 100 µM, the GI50 [8] was 56.7 µM and the TGI [8] was over 100 µM. For the same compound, the GI50 [3] was over 100 µM, the TGI [3] was over 100 µM and the GI50 [4] was over 100 µM. For the same compound, the TGI [4] was over 100 µM, the GI50 [5] was 8.95 µM and the TGI [5] was over 100 µM. For the same compound, the GI50 [6] was 41 µM, the TGI [6] was over 100 µM and the GI50 [7] was over 100 µM. It also gave a TGI [7] of over 100 µM.

Compound `O=c1cccccc1NCCOCCNc1cccccc1=O` has a TGI [1] of over 100 µM, a TGI [2] of over 100 µM and a TGI [3] of over 100 µM. It also gave a TGI [4] of over 100 µM, a TGI [5] of over 100 µM and a TGI [6] of over 100 µM. The TGI [7] was over 100 µM.

In the case of `COc1ccc(C(=O)C(c2ccc(OC)cc2)C2(O)C(=O)Nc3ccccc32)cc1` (stereo unspecified), the TGI [2] is reported as over 100 µM, the TGI [8] is reported as over 100 µM and the TGI [3] is reported as over 100 µM. It also gave a TGI [4] of over 100 µM, a TGI [5] of over 100 µM and a TGI [7] of over 100 µM.

`CCC[CH2][Sn]1([CH2]CCC)[O]C(=O)c2cc(I)cc(I)c2[O]1` gave a GI50 [1] of 0.702 µM, a TGI [1] of 1.97 µM and a GI50 [2] of 1.42 µM. It also gave a TGI [2] of 2.72 µM, a GI50 [8] of 1.4 µM and a TGI [8] of 2.93 µM. For the same compound, the GI50 [3] was 0.8 µM, the TGI [3] was 2.39 µM and the GI50 [4] was 1.66 µM. The TGI [4] was 3.17 µM, the GI50 [5] was 0.344 µM and the TGI [5] was 1.76 µM. The GI50 [6] was 1.45 µM, the TGI [6] was 2.76 µM and the GI50 [7] was 1.24 µM. The TGI [7] was 2.55 µM.

In the case of `Cc1ccc(NC(=O)CCC(CC(=O)C(C)(C)C)=NNC(=O)C(=O)NN)cc1C`, the TGI [1] is reported as over 100 µM, the TGI [3] is reported as over 100 µM and the TGI [4] is reported as over 100 µM. For the same compound, the TGI [5] was over 100 µM, the TGI [6] was over 100 µM and the TGI [7] was over 100 µM.

`COc1ccc2nc(-c3cc(-c4cc(OC)c(OC)c(OC)c4)n[nH]3)[nH]c2c1` gave a GI50 [9] of 0.899 µM, a TGI [9] of 3.31 µM and a GI50 [1] of 1.61 µM. For the same compound, the TGI [1] was 3.24 µM, the GI50 [2] was 1.81 µM and the TGI [2] was 6.65 µM. The GI50 [4] was 1.66 µM, the TGI [4] was 4.31 µM and the GI50 [5] was 0.738 µM. For the same compound, the TGI [5] was 3.27 µM, the GI50 [6] was 2.64 µM and the TGI [6] was 8.08 µM. It also gave a GI50 [10] of 1.03 µM, a TGI [10] of 4.1 µM and a GI50 [7] of 1.67 µM. For the same compound, the TGI [7] was 3.69 µM.

With `O=C(O)C(CP(=O)(O)O)=C(Cl)Cl` the TGI [1] was over 100 µM, the TGI [2] was over 100 µM and the TGI [8] was over 100 µM. For the same compound, the TGI [3] was over 100 µM, the TGI [5] was over 100 µM and the TGI [6] was over 100 µM. It also gave a TGI [7] of over 100 µM.

For `CC(=O)OC(/C=C1/C=CC(=O)O1)COC(=O)c1ccccc1` (stereo unspecified), the TGI [1] was over 31.2 µM, the TGI [2] was over 31.2 µM and the TGI [8] was over 31.2 µM. It also gave a TGI [3] of over 31.2 µM, a TGI [4] of over 31.2 µM and a TGI [6] of over 31.2 µM. For the same compound, the TGI [7] was over 31.2 µM.

From PubChem BioAssay (NCI)
